Values quoted from earlier work, collected in patent publication US20120035233A1 (priority 2009, published 2012).
Read-outs that look alike come from different tables or passages of the source.

Clc1ccc(COC(Cn2ccnc2)c2ccc(Cl)cc2Cl)c(Cl)c1 (centres unmarked) [Miconazole Nitrate, 1-[2-(2,4-Dichlorophenyl)-2-[(2,4-dichlorophenyl)methoxy]ethyl]-1H-imidazole]
solubility (chloroform): slightly soluble | solubility (ethanol (95%)): slightly soluble | solubility (ether): very slightly soluble | solubility (methanol): freely soluble | solubility (water): very slightly soluble
